What is called IC50 is the concentration at which inhibition is half-maximal.

The target of the assay is T1, human FSH receptor (Homo sapiens, UniProt P23945).
T1 construct: expressed in transfected cells; host or cells: CHO cells, cotransfected with a CRE/promotor firefly luciferase reporter
T1 sequence (P23945 18-695): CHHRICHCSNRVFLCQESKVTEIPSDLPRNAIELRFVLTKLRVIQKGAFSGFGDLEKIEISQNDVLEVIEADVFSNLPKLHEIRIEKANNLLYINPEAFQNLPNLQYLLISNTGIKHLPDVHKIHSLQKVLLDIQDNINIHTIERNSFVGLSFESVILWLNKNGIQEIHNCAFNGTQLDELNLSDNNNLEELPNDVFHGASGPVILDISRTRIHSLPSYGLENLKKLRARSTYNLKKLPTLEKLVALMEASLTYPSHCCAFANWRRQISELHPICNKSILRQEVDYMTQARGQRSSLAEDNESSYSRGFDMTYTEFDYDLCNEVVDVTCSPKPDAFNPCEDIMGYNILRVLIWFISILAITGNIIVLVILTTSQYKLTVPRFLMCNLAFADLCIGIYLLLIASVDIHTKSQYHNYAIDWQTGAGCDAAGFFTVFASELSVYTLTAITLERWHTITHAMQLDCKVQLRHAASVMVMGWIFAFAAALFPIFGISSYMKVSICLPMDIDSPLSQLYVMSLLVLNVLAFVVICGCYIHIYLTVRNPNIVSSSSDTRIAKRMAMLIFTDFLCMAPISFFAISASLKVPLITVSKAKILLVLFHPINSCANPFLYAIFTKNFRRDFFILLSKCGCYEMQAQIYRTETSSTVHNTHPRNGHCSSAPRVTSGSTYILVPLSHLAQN
Kind of assay: Antagonistic activity at the human FSH receptor expressed in CHO cells (CRE-luciferase reporter). It counts as cell-based. The note with it: CHO cells stably transfected with human FSH receptor and CRE/firefly luciferase reporter; 4 hours incubation; read-out: pIC50 (negative logarithm of the IC50 value) (converted). How it is done:
The FSHR antagonists of the invention have pIC50 values higher than 6 in said assay. The preferred compounds of the invention have pIC50 values higher than 8.
Antagonistic activity of the compounds at the human FSH receptor was determined in Chinese Hamster Ovary (CHO) cells stably transfected with the human FSH receptor and cotransfected with a cAMP responsive element (CRE)/promotor directing the expression of a firefly luciferase reporter gene. […] The cells (7,500 cells/well of a 384 well plate) were incubated in Dulbecco′ minimal essential F12 modified medium (Invitrogen), supplemented with 1 μg/ml bovine insulin, 5 μg/ml human apo-transferrin, 100 U/ml penicillin G and 100 μg/ml streptomycin with the test compounds (concentration between 0.316 nM and 10.0 μM) in duplicate together with […] (which, at this concentration in the absence of test compound, induces 80% of the maximal luciferase stimulation) in a humidified atmosphere (95%) at 5-7% CO2 and 37° C. The final concentration of DMSO was 1%. After 4 hours of incubation, plates were allowed to adjust to room temperature for 1 hour. Then, SteadyLite (Perkin Elmer) solution was added to the wells and cells were allowed to lyse for at least 1 hour at room temperature. Subsequently, luciferase activity was measured in a luminescence counter. The signal is expressed as counts per second (cps). The IC50 (concentration of test compound causing half-maximal (50%) inhibition of the maximally attainable inhibition of the luciferase stimulation by the compound) and efficacy of the compounds were determined using the software program MathIQ (version 2.3, ID Business Solutions Limited).
In general terms: In a reporter assay the amount or activity of a reporter protein is the signal.
As to `COc1cc(OCc2ccccc2)cc(C(=O)NCC2CCN(c3ccnc(-c4cccc(-n5cccn5)c4)n3)CC2)c1` [Example 11, N-((1-(2-(3-(1H-pyrazol-1-yl)phenyl)pyrimidin-4-yl)piperidin-4-yl)methyl)-3-(benzoxy)-5-methoxybenzamide], the IC50 is 10 to 100 nM.
To `COc1cc(OCc2ccccc2)cc(C(=O)NCC2CCN(c3ncnc(-c4cccc(-c5ccccn5)c4)n3)CC2)c1` [Example 12B, 3-(benzoxy)-5-methoxy-N-((1-(4-(3-(pyridin-2-yl)phenyl)-1,3,5-triazin-2-yl)piperidin-4-yl)methyl)benzamide] belongs 10 to 100 nM.
To `COc1cc(OCc2ccc(F)cc2)cc(C(=O)NCC2CCN(c3ccnc(-c4cccc(-n5cccn5)c4)n3)CC2)c1` [Example 14, N-((1-(2-(3-(1H-pyrazol-1-yl)phenyl)pyrimidin-4-yl)piperidin-4-yl)methyl)-3-(4-fluorobenzoxy)-5-methoxybenzamide] belongs 10 to 100 nM.
To `COc1cc(OCC2CC2)cc(C(=O)NCC2CCN(c3ccnc(-c4cccc(-n5cccn5)c4)n3)CC2)c1` [Example 15A, N-((1-(2-(3-(1H-pyrazol-1-yl)phenyl)pyrimidin-4-yl)piperidin-4-yl)methyl)-3-(cyclopropylmethoxy)-5-methoxybenzamide] belongs less than 10 nM.
In the case of `COc1cc(OCc2cc(C)on2)cc(C(=O)NCC2CCN(c3ccnc(-c4cccc(-n5cccn5)c4)n3)CC2)c1` [Example 15B, N-((1-(2-(3-(1H-pyrazol-1-yl)phenyl)pyrimidin-4-yl)piperidin-4-yl)methyl)-3-methoxy-5-((5-methylisoxazol-3-yl)methoxy)benzamide], the IC50 is less than 10 nM.
With `COc1cc(OCCCO)cc(C(=O)NCC2CCN(c3ccnc(-c4cccc(-n5cccn5)c4)n3)CC2)c1` [Example 15C, N-((1-(2-(3-(1H-pyrazol-1-yl)phenyl)pyrimidin-4-yl)piperidin-4-yl)methyl)-3-(3-hydroxypropoxy)-5-methoxybenzamide], the IC50 is 10 to 100 nM.
To `COCCOc1cc(OC)cc(C(=O)NCC2CCN(c3ccnc(-c4cccc(-n5cccn5)c4)n3)CC2)c1` [Example 15D, N-((1-(2-(3-(1H-pyrazol-1-yl)phenyl)pyrimidin-4-yl)piperidin-4-yl)methyl)-3-methoxy-5-(2-methoxyethoxy)benzamide] belongs 10 to 100 nM.
With `COc1cc(OCC2CC2)cc(C(=O)NCC2CCN(c3ncnc(-c4cccc(-n5cccn5)c4)n3)CC2)c1` [Example 17A, N-((1-(4-(3-(1H-pyrazol-1-yl)phenyl)-1,3,5-triazin-2-yl)piperidin-4-yl)methyl)-3-(cyclopropylmethoxy)-5-methoxybenzamide], the IC50 was less than 10 nM.
To `COc1cc(OCC2CCOCC2)cc(C(=O)NCC2CCN(c3ncnc(-c4cccc(-n5cccn5)c4)n3)CC2)c1` [Example 17B, N-((1-(4-(3-(1H-pyrazol-1-yl)phenyl)-1,3,5-triazin-2-yl)piperidin-4-yl)methyl)-3-methoxy-5-((tetrahydro-2H-pyran-4-yl)methoxy)benzamide] belongs 10 to 100 nM.
`COc1cc(OCc2ccoc2)cc(C(=O)NCC2CCN(c3ncnc(-c4cccc(-n5cccn5)c4)n3)CC2)c1` [Example 17C]: the IC50 is 10 to 100 nM.
To `CNC(=O)COc1cc(OC)cc(C(=O)NCC2CCN(c3ncnc(-c4cccc(-n5cccn5)c4)n3)CC2)c1` [Example 17D, N-((1-(4-(3-(1H-pyrazol-1-yl)phenyl)-1,3,5-triazin-2-yl)piperidin-4-yl)methyl)-3-methoxy-5-(2-(methylamino)-2-oxoethoxy)benzamide] belongs 10 to 100 nM.
To `COc1cc(OC)cc(C(=O)NCC2CCN(c3ccnc(-c4cccc(-c5ccn[nH]5)c4)n3)CC2)c1` [Example 18, N-((1-(2-(3-(1H-pyrazol-5-yl)phenyl)pyrimidin-4-yl)piperidin-4-yl)methyl)-3,5-dimethoxybenzamide] belongs 10 to 100 nM; to `COc1cc(OCC2CC2)cc(C(=O)NCC2CCN(c3nc(-c4cccc(C#N)c4)ncc3F)CC2)c1` [Example 19B, N-((1-(2-(3-cyanophenyl)-5-fluoropyrimidin-4-yl)piperidin-4-yl)methyl)-3-(cyclopropylmethoxy)-5-methoxybenzamide], 10 to 100 nM; to `COc1cc(OCC2CC2)cc(C(=O)NCC2CCN(c3nc(-c4cccc(-c5ccn[nH]5)c4)ncc3F)CC2)c1` [Example 19C, N-((1-(2-(3-(1H-pyrazol-5-yl)phenyl)-5-fluoropyrimidin-4-yl)piperidin-4-yl)methyl)-3-(cyclopropylmethoxy)-5-methoxybenzamide], less than 10 nM.
For `COc1cc(OCC2CC2)cc(C(=O)NCC2CCN(c3ccnc(-c4ccc5[nH]ncc5c4)n3)CC2)c1` [Example 19E, N-((1-(2-(1H-indazol-5-yl)pyrimidin-4-yl)piperidin-4-yl)methyl)-3-(cyclopropylmethoxy)-5-methoxybenzamide], the IC50 is 10 to 100 nM.
To `COC(=O)c1cnc(-c2cccc(-n3cccn3)c2)nc1N1CCC(CNC(=O)c2cc(OC)cc(OC)c2)CC1` [Example 21B, methyl 2-(3-(1H-pyrazol-1-yl)phenyl)-4-(4-((3,5-dimethoxybenzamido)methyl)piperidin-1-yl)pyrimidine-5-carboxylate] belongs 10 to 100 nM.
To `COc1cc(OCCO)cc(C(=O)NCC2CCN(c3nc(-c4cccc(-c5cc[nH]n5)c4)ncc3F)CC2)c1` [Example 22, N-((1-(2-(3-(1H-pyrazol-3-yl)phenyl)-5-fluoropyrimidin-4-yl)piperidin-4-yl)methyl)-3-(2-hydroxyethoxy)-5-methoxybenzamide] belongs 10 to 100 nM.
To `COCCCOc1cc(OC)cc(C(=O)NCC2CCN(c3nc(-c4cccc(-c5cc[nH]n5)c4)ncc3F)CC2)c1` [Example 23A, N-((1-(2-(3-(1H-pyrazol-3-yl)phenyl)-5-fluoropyrimidin-4-yl)piperidin-4-yl)methyl)-3-methoxy-5-(3-methoxypropoxy)benzamide] belongs 10 to 100 nM.
Regarding `C#CCOc1cc(OC)cc(C(=O)NCC2CCN(c3nc(-c4cccc(-c5cc[nH]n5)c4)ncc3F)CC2)c1` [Example 23C, N-((1-(2-(3-(1H-pyrazol-3-yl)phenyl)-5-fluoropyrimidin-4-yl)piperidin-4-yl)methyl)-3-methoxy-5-(prop-2-ynoxy)benzamide], the IC50 was 10 to 100 nM.
To `COc1cc(OCC2CC2)cc(C(=O)NCC2CCN(c3nc(-c4cccc(-n5ccnn5)c4)ncc3F)CC2)c1` [Example 28C, N-((1-(2-(3-(1H-1,2,3-triazol-1-yl)phenyl)-5-fluoropyrimidin-4-yl)piperidin-4-yl)methyl)-3-(cyclopropylmethoxy)-5-methoxybenzamide] belongs 10 to 100 nM.
`COc1cc(OCC(F)(F)F)cc(C(=O)NCC2CCN(c3ncnc(-c4cccc(C#N)c4)n3)CC2)c1` [Example 30C, N-((1-(4-(3-cyanophenyl)-1,3,5-triazin-2-yl)piperidin-4-yl)methyl)-3-methoxy-5-(2,2,2-trifluoroethoxy)benzamide]: the IC50 is 10 to 100 nM.
To `COc1cc(OCC(F)(F)F)cc(C(=O)NCC2CCN(c3ncnc(-c4cccc(C#N)c4)n3)CC2)c1` [Example 30D, N-((1-(4-(3-cyanophenyl)-1,3,5-triazin-2-yl)piperidin-4-yl)methyl)-3-methoxy-5-(2,2,2-trifluoroethoxy)benzamide] belongs less than 10 nM; to `COc1cc(OCC2CC2)cc(C(=O)NCC2CCN(c3ccnc(-c4cccc(C(=O)Nc5ccn(C)n5)c4)n3)CC2)c1` [Example 32C, 3-(cyclopropylmethoxy)-5-methoxy-N-((1-(2-(3-(1-methyl-1H-pyrazol-3-ylcarbamoyl)phenyl)pyrimidin-4-yl)piperidin-4-yl)methyl)benzamide], less than 10 nM; to `COc1cc(OCC2CC2)cc(C(=O)NCC2CCN(c3ccnc(-c4cccc(C(=O)NC(C)(C)C)c4)n3)CC2)c1` [Example 32F, N-((1-(2-(3-(tert-butylcarbamoyl)phenyl)pyrimidin-4-yl)piperidin-4-yl)methyl)-3-(cyclopropylmethoxy)-5-methoxybenzamide], 10 to 100 nM.

The values above are taken from patent publication US8993757B2, “N-piperidin-4-yl derivatives” (Merck Sharp & Dohme B.V., priority 2011, dated 2015).
